Inconclusive results and toxic doses are left out. Cut-off read from the data, not from the text of the source: active = T/C of 150% or more; inactive = T/C below 125%.
Tested on: L1210 leukemia ip in BDF1 mice, survival T/C
Assay: NCI In Vivo Anticancer Drug Screen. Data for tumor model L1210 Leukemia (intraperitoneal) in B6D2F1 (BDF1) mice
Settings: endpoint: mean survival time, higher = longer survival
In short: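 In this screen, tumor-bearing mice given compound are compared to those given vehicle, and their survival values are reported as a treated-to-control quotient.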

[1] = dose: 100.0 mg/kg/injection, schedule: Q01DX001 (ip), vehicle: Klucel (hydroxypropylcellulose) (HPC)
[2] = dose: 200.0 mg/kg/injection, schedule: Q01DX001 (ip), vehicle: Klucel (hydroxypropylcellulose) (HPC)
[3] = dose: 400.0 mg/kg/injection, schedule: Q01DX001 (ip), vehicle: Klucel (hydroxypropylcellulose) (HPC)
[4] = dose: 100.0 mg/kg/injection, schedule: Q04DX003 (ip), vehicle: Klucel (hydroxypropylcellulose) (HPC)
[5] = dose: 200.0 mg/kg/injection, schedule: Q04DX003 (ip), vehicle: Klucel (hydroxypropylcellulose) (HPC)
[6] = dose: 400.0 mg/kg/injection, schedule: Q04DX003 (ip), vehicle: Klucel (hydroxypropylcellulose) (HPC)
[7] = dose: 100.0 mg/kg/injection, schedule: Q01DX009 (ip), vehicle: Klucel (hydroxypropylcellulose) (HPC)
[8] = dose: 200.0 mg/kg/injection, schedule: Q01DX009 (ip), vehicle: Klucel (hydroxypropylcellulose) (HPC)
[9] = dose: 400.0 mg/kg/injection, schedule: Q01DX009 (ip), vehicle: Klucel (hydroxypropylcellulose) (HPC)
[10] = dose: 100.0 mg/kg/injection, schedule: Q04DX002 (ip), vehicle: Klucel (hydroxypropylcellulose) (HPC)
[11] = dose: 200.0 mg/kg/injection, schedule: Q04DX002 (ip), vehicle: Klucel (hydroxypropylcellulose) (HPC)
[12] = dose: 400.0 mg/kg/injection, schedule: Q04DX002 (ip), vehicle: Klucel (hydroxypropylcellulose) (HPC)
[13] = dose: 50.0 mg/kg/injection, schedule: Q01DX009 (ip), vehicle: saline with Tween-80
[14] = dose: 50.0 mg/kg/injection, schedule: Q01DX009 (ip), vehicle: Klucel (hydroxypropylcellulose) (HPC)
[15] = dose: 20.0 mg/kg/injection, schedule: Q01DX009 (ip), vehicle: saline
[16] = dose: 5.0 mg/kg/injection, schedule: Q01DX009 (ip), vehicle: saline
[17] = dose: 10.0 mg/kg/injection, schedule: Q01DX009 (ip), vehicle: saline

Measured: T/C

CCCCCCCCCCCC(=O)Nc1ccc(O)cc1
inactive: dose: 25.0 mg/kg/injection, schedule: Q01DX009 (ip), vehicle: gum acacia 93 % of control | dose: 50.0 mg/kg/injection, schedule: Q01DX009 (ip), vehicle: gum acacia 93 % of control | dose: 100.0 mg/kg/injection, schedule: Q01DX009 (ip), vehicle: gum acacia 96 % of control | dose: 100.0 mg/kg/injection, schedule: Q04DX003 (ip), vehicle: gum acacia 88 % of control | dose: 200.0 mg/kg/injection, schedule: Q01DX009 (ip), vehicle: gum acacia 92 % of control | dose: 200.0 mg/kg/injection, schedule: Q04DX003 (ip), vehicle: gum acacia 86 % of control | dose: 400.0 mg/kg/injection, schedule: Q01DX009 (ip), vehicle: gum acacia 92 % of control | dose: 400.0 mg/kg/injection, schedule: Q04DX003 (ip), vehicle: gum acacia 95 % of control

O=c1[nH]c(-c2ccccc2)c(CO)c(=O)[nH]1
inactive: dose: 75.0 mg/kg/injection, schedule: Q04DX003 (ip), vehicle: Klucel (hydroxypropylcellulose) (HPC) 103 % of control | [1] 96 % of control | dose: 150.0 mg/kg/injection, schedule: Q04DX003 (ip), vehicle: Klucel (hydroxypropylcellulose) (HPC) 97 % of control | [2] 102 % of control | dose: 300.0 mg/kg/injection, schedule: Q04DX003 (ip), vehicle: Klucel (hydroxypropylcellulose) (HPC) 105 % of control | [3] 109 % of control

COc1ccc(OC)c(C(=S)N2CCOCC2)c1
inactive: [1] 94 % of control | [4] 96 % of control | [2] 102 % of control | [5] 96 % of control | [3] 100 % of control | [6] 96 % of control

CCCCCCC(O)CCc1ccccc1 (centres undefined)
inactive: [7] 103 % of control | [8] 102 % of control | [9] 113 % of control

O=c1[nH]c2ccccc2c(=O)n1CCCN1CCN(c2cccc(Cl)c2)CC1
inactive: [7] 108 % of control | [10] 111 % of control | [8] 108 % of control | [11] 114 % of control | [9] 108 % of control | [12] 104 % of control

CCCCCCCCCCCC[P+](CCCC)(CCCC)CCCC
inactive: dose: 0.55 mg/kg/injection, schedule: Q01DX Z (ip), vehicle: saline 110 % of control | dose: 1.16 mg/kg/injection, schedule: Q01DX Z (ip), vehicle: saline 100 % of control | dose: 1.25 mg/kg/injection, schedule: Q01DX Z (ip), vehicle: saline 110 % of control

O=C1OC2C3c4ccccc4C(c4c3cc(F)c3ccccc43)C2O1 (centres undefined)
inactive: [4] 100 % of control | [5] 97 % of control | [6] 95 % of control

N#CC1C(=O)NC(=O)C(C#N)C12CCCC(C(F)(F)F)C2 (centres undefined)
inactive: dose: 50.0 mg/kg/injection, schedule: Q01DX001 (ip), vehicle: saline 104 % of control | dose: 100.0 mg/kg/injection, schedule: Q01DX001 (ip), vehicle: saline 98 % of control | dose: 200.0 mg/kg/injection, schedule: Q01DX001 (ip), vehicle: saline 106 % of control | dose: 400.0 mg/kg/injection, schedule: Q01DX001 (ip), vehicle: saline 98 % of control

c1cc(C2OCCO2)cs1
inactive: [13] 86 % of control | dose: 100.0 mg/kg/injection, schedule: Q01DX009 (ip), vehicle: saline with Tween-80 86 % of control

N#CC(C(=O)c1ccccc1)(C(=O)c1ccccc1)c1cccc2ccccc12
inactive: [14] 89 % of control | [7] 95 % of control | [4] 90 % of control | [8] 92 % of control | [5] 96 % of control | [6] 95 % of control

COc1ccc(-c2nnc(-c3ccc(OC)cc3)nn2)cc1
inactive: [10] 103 % of control | [11] 87 % of control | [12] 87 % of control

O=C1C2CCC1C(N1CCCC1)CC2 (centres undefined)
inactive: dose: 75.0 mg/kg/injection, schedule: Q01DX001 (ip), vehicle: saline 101 % of control | dose: 150.0 mg/kg/injection, schedule: Q01DX001 (ip), vehicle: saline 104 % of control

CC1(C)N=C(N)N=C(N)N1c1cccc(CC(=O)Nc2ccc(S(=O)(=O)F)cc2)c1
inactive: dose: 0.8 mg/kg/injection, schedule: Q01DX009 (ip), vehicle: saline 101 % of control | dose: 4.0 mg/kg/injection, schedule: Q01DX009 (ip), vehicle: saline 100 % of control | [15] 110 % of control | dose: 25.0 mg/kg/injection, schedule: Q01DX009 (ip), vehicle: Klucel (hydroxypropylcellulose) (HPC) 108 % of control | dose: 25.0 mg/kg/injection, schedule: Q01DX009 (ip), vehicle: saline with Tween-80 103 % of control | [14] 113 % of control | [13] 100 % of control | dose: 88.0 mg/kg/injection, schedule: Q01DX009 (ip), vehicle: saline with Tween-80 102 % of control | [7] 109 % of control | dose: 100.0 mg/kg/injection, schedule: Q01DX009 (ip), vehicle: saline 117 % of control | dose: 132.0 mg/kg/injection, schedule: Q01DX009 (ip), vehicle: saline with Tween-80 121 % of control | dose: 150.0 mg/kg/injection, schedule: Q01DX009 (ip), vehicle: Klucel (hydroxypropylcellulose) (HPC) 105 % of control | dose: 300.0 mg/kg/injection, schedule: Q01DX009 (ip), vehicle: saline with Tween-80 89 % of control

Cc1[nH]c(=O)[nH]c(=O)c1N(CCO)CCF
inactive: dose: 100.0 mg/kg/injection, schedule: Q04DX003 (ip), vehicle: saline 98 % of control | dose: 200.0 mg/kg/injection, schedule: Q04DX003 (ip), vehicle: saline 101 % of control | dose: 400.0 mg/kg/injection, schedule: Q04DX003 (ip), vehicle: saline 97 % of control

O=S(=O)([O-])Sn1c(-c2ccccc2)c[n+]2ccccc12
inactive: [16] 96 % of control | dose: 10.0 mg/kg/injection, schedule: Q01DX001 (ip), vehicle: saline 102 % of control | [17] 101 % of control | dose: 10.0 mg/kg/injection, schedule: Q04DX003 (ip), vehicle: saline 100 % of control | dose: 20.0 mg/kg/injection, schedule: Q01DX001 (ip), vehicle: saline 100 % of control | [15] 120 % of control | dose: 20.0 mg/kg/injection, schedule: Q04DX003 (ip), vehicle: saline 97 % of control | dose: 40.0 mg/kg/injection, schedule: Q01DX001 (ip), vehicle: saline 96 % of control | dose: 40.0 mg/kg/injection, schedule: Q04DX003 (ip), vehicle: saline 106 % of control

CCCCCCCCCCCCNC(=S)NCCCC
inactive: dose: 50.0 mg/kg/injection, schedule: Q04DX002 (ip), vehicle: Klucel (hydroxypropylcellulose) (HPC) 91 % of control | [10] 95 % of control | [11] 98 % of control

Cc1ccn(-c2ccccc2)n1
inactive: dose: 100.0 mg/kg/injection, schedule: Q01DX009 (ip), vehicle: other 100 % of control | dose: 100.0 mg/kg/injection, schedule: Q04DX003 (ip), vehicle: other 101 % of control | dose: 200.0 mg/kg/injection, schedule: Q01DX009 (ip), vehicle: other 90 % of control | dose: 200.0 mg/kg/injection, schedule: Q04DX003 (ip), vehicle: other 104 % of control | dose: 400.0 mg/kg/injection, schedule: Q01DX009 (ip), vehicle: other 107 % of control | dose: 400.0 mg/kg/injection, schedule: Q04DX003 (ip), vehicle: other 104 % of control

O=C(OC1OCC(OCc2ccccc2)C(OCc2ccccc2)C1OCc1ccccc1)c1ccc([N+](=O)[O-])cc1 (centres undefined)
inactive: dose: 100.0 mg/kg/injection, schedule: Q01DX001 (ip), vehicle: other 88 % of control | dose: 200.0 mg/kg/injection, schedule: Q01DX001 (ip), vehicle: other 90 % of control | dose: 400.0 mg/kg/injection, schedule: Q01DX001 (ip), vehicle: other 90 % of control

O=C(C=C(C(F)(F)Cl)C(F)(F)Cl)c1cccs1
inactive: [16] 95 % of control | [17] 88 % of control

ClCC/C(=C(/Cl)c1ccccc1)c1ccccc1
inactive: [4] 103 % of control | [5] 98 % of control | [6] 98 % of control

From PubChem BioAssay AID248 (DTP/NCI, 2004)
